{"source": "patent US20240247031A1", "about": "“COMPOSITION FOR TREATING CANCER CONTAINING TELOMERASE-TARGETING GNRH ANTAGONIST-DERIVED PEPTIDE HS1002” (Research & Business Foundation Sungkyunkwan University, priority 2023, published 2024)", "key": {"[1]": {"system": "c-Myc", "experiment": "c-Myc protein expression and transcriptional activity in LNCaP (FIG. 12)", "type": "cell-based, human", "settings": "300 μM, 72 h", "procedure": "The cells and tumor tissues were homogenized using the PRO-PREP™ extraction solution (iNtRON Biotechnology, Seongnam, Korea). After incubation, the homogenate was centrifuged at 16,000×g for 20 min at 4° C., and the supernatant was collected for western blot analysis. Subsequently, an equivalent quantity of protein was separated using sodium dodecyl sulfate polyacrylamide gels and transferred onto a polyvinylidene difluoride (PVDF) membrane. The PVDF membranes were incubated with the primary antibodies overnight at 4° C., washed with tris-buffered saline, and then incubated with HRP-conjugated anti-mouse or anti-rabbit antibodies. The bands were visualized using a ChemiDoc imaging system (Bio-Rad, Hercules, CA, USA). The band intensities were determined using an Image J software.\nThe c-Myc Transcription Factor Assay Kit (Cat. ab207200, abcam) was used to quantify the activation of c-Myc in nuclear extracts after peptide treatment. […] The protein concentration was quantified using the Bradford method (798 μL Bradford, 200 μL water, and 2 μL of the protein) at a wavelength of 595 nm (SmartSpecPlus; BioRad). For the detection of c-Myc transcriptional activity, 5 μg of the isolated nuclear extracts were used, and the absorbance was measured on a spectrophotometer (Synergy HT; BioTek) at OD 450 nm. […]"}, "[2]": {"system": "SKOV3", "experiment": "MTT cytotoxicity on various cancer cells (Table 1)", "type": "cell-based, human", "settings": "ovarian cancer cell line SKOV3; MTT, 48 h", "procedure": "(§1) To evaluate anticancer activities of the produced peptides on various types of cancer cells, MTT analysis was performed. Human prostate cancer cell lines (LNCaP, PC3, and DU145), human breast cancer cell lines (MDA-MB-231 and MCF-7), lung cancer cell line (A549), and ovarian cancer cell line (SKOV3) were cultured in RPMI media supplemented with 1% penicillin/streptomycin and 1% fetal bovine serum (all from Life Technologies, Grand Island, NY). The cells were seeded in 96-well plates containing 100 μL of growth media for 24 h. The media were removed, and then 100 μL of the peptide (solvent DPBS) at each concentration was added to each well and incubated at 37° C. for 48 h. After incubation for 48 h, 100 μL of MTT reagent was added to each well. The cells were incubated at 37° C. for 4 h, and then the supernatant was removed. Formazan crystals were dissolved in 100 μL of DMSO with gentle stirring at 37° C. for 10 min. The absorbance per well was measured at 540 nm using a VERSA max microplate reader (Molecular Devices Corp.)."}, "[3]": {"system": "DU145", "experiment": "MTT cytotoxicity on various cancer cells (Table 1)", "type": "cell-based, human", "settings": "prostate cancer cell line DU145; MTT, 48 h", "procedure": "as §1"}, "[4]": {"system": "PC3", "experiment": "MTT cytotoxicity on various cancer cells (Table 1)", "type": "cell-based, human", "settings": "prostate cancer cell line PC3; MTT, 48 h", "procedure": "as §1"}, "[5]": {"system": "A549", "experiment": "MTT cytotoxicity on various cancer cells (Table 1)", "type": "cell-based, human", "settings": "lung cancer cell line A549; MTT, 48 h", "procedure": "as §1"}, "[6]": {"system": "serum testosterone", "experiment": "Serum testosterone level and seminal vesicle weight after repeated injection (FIG. 15)", "type": "in vivo, mouse", "settings": "male BALB/c mice", "procedure": "6-week-old male BALB/c mice (Jung Ang Lab Animal Inc., Seoul, South Korea) were subcutaneously injected with vehicle or 1 mg/kg/day HS1002 for 10 days. Blood samples were collected 5 h after initial injection and 5 h after last injection. The serum concentration of testosterone was determined using a testosterone ELISA kit (ALPCO Diagnostics, Salem, NH, USA).\nGnRH agonists stimulate the release of LH and FSH by binding to GnRHR located on the pituitary gonadotropes and consequently stimulate the secretion of steroid hormone from the gonads. However, continuous exposure to the GnRH agonist results in the downregulation of desensitization of GnRHR and eventually decreases production of testosterone. The inhibitory effect on the pituitary gonadal axis has a role in the anti-prostate cancer effects of GnRH analogs. Based on the HS1002 peptide design strategy, to validate whether HS1002 functions as a GnRHR ligand, the serum testosterone level in male mice was tested after repeated subcutaneous injections of HS1002."}, "[7]": {"system": "tumor-infiltrating CD45+ and CD8+ cells in MC38 tumor", "experiment": "Flow cytometry of tumor infiltrating leukocytes in MC38 tumors (FIG. 20)", "type": "in vivo, mouse", "settings": "MC38 tumor tissue, vs vehicle", "description": "A mouse tumor dissociation kit (Cat. 130-096-730, Miltenyi Biotec, Bergisch Gladbach, Germany) was used for tumor digestion according to the manufacturer's protocol. Briefly, the tumor was cut into small fragments with RPMI 1640 containing enzymes D, R, and A. After filtration through a 70 μm cell strainer, red blood cells were removed using RBC lysis buffer (Cat. 420301, BioLegend, San Diego, CA, USA). The acquired single-cell suspension was used for further analysis. For analysis of intracellular cytokines, the cell suspension was incubated in the presence of a cell stimulation cocktail (with a protein transport inhibitor) (Cat. 00-4975-93, Invitrogen, eBioscience) for 5 h and subjected to fixation and permeabilization using an intracellular fixation and permeabilization buffer set (Cat. 88-8824-00, Thermo Fisher) according to the manufacturer's protocol. Following the staining process, samples were analyzed with Novocyte (ACEA Biosciences, San Diego, CA, USA).\nCTLs are the key mediators of granzyme- and perforin-mediated cancer cell destruction during cancer immunosurveillance and immunotherapy. […] To investigate the effect of HS1002 on tumor-infiltrating CD8^+ T cells in MC38 tumor tissue, flow cytometric analysis was used. Flow cytometric analysis confirmed that HS1002 elevated the total number of tumor-infiltrating CD45+ cells and the production of granzyme B and IFN-γ in CD8^+ cells and in MC38 tumor tissue (FIG. 20A). To assess the effect of HS1002 on immune response-related gene expression in a syngeneic mouse model, gene expression analysis was conducted by profiling the transcriptomes of the tumor. A total of 49,196 genes were analyzed in tumor tissues, and genes with a fold change exceeding 1.5 were included for further analysis with statistical significance at p<0.05."}}}
{"smiles": "CCNC(=O)[C@@H]1CCCN1C(=O)[C@@H](NC(=O)[C@H](Cc1ccccc1)NC(=O)[C@H](CCCNC(=N)N)NC(=O)[C@H](CC(C)C)NC(=O)[C@H](CCCNC(=N)N)NC(=O)[C@H](Cc1ccc(O)cc1)NC(=O)[C@H](CO)NC(=O)[C@H](Cc1c[nH]c2ccccc12)NC(=O)[C@H](Cc1c[nH]cn1)NC(=O)[C@@H]1CCC(=O)N1)[C@@H](C)CC", "note": "[HS1002]", "values": [{"measurement": "c-Myc protein expression", "setting": "[1]", "value": "significantly decreased"}, {"measurement": "c-Myc transcriptional activity", "setting": "[1]", "value": "significantly decreased"}, {"measurement": "Cytotoxicity (IC50) SKOV3", "setting": "[2]", "value": "4.91 ± 0.41", "unit": "µg/mL"}, {"measurement": "Cytotoxicity (IC50) DU145", "setting": "[3]", "value": "5.23 ± 0.65", "unit": "µg/mL"}, {"measurement": "Cytotoxicity (IC50) PC3", "setting": "[4]", "value": "7.56 ± 0.61", "unit": "µg/mL"}, {"measurement": "Cytotoxicity (IC50) A549", "setting": "[5]", "value": "7.94 ± 0.07", "unit": "µg/mL"}, {"measurement": "serum testosterone level increase compared to the vehicle-injected group", "setting": "[6]; 1 mg/kg s.c., 5 h after the 1st injection", "value": 2.37, "unit": "fold"}, {"measurement": "seminal vesicle weights", "setting": "[6]; 1 mg/kg/day s.c., 10 days, vs vehicle", "value": "significantly reduced"}, {"measurement": "serum testosterone level", "setting": "[6]; 1 mg/kg/day s.c., at 10 days after repeated injection, vs vehicle", "value": "significantly lower"}, {"measurement": "production of IFN-γ in CD8+ cells", "setting": "[7]", "value": "elevated"}, {"measurement": "production of granzyme B in CD8+ cells", "setting": "[7]", "value": "elevated"}, {"measurement": "total number of tumor-infiltrating CD45+ cells", "setting": "[7]", "value": "elevated"}]}
